pEC50, pIC50: −log10 of the molar value. Read-outs that look alike come from different tables or passages of the source.
Legend:
[1] = system: RPS19-insufficient cord blood CD34+ HSPCs; assay: In vitro differentiation of cord blood CD34+ HSPCs transduced with shRNA against RPS19 (cell count and flow cytometry); on erythroid expansion in RPS19-insufficiency, % of control: untreated 8.7%; assay type: cell-based, human; conditions: for increase of erythropoiesis in RPS19-insufficiency compared with control treated cells: CD235+ erythroid cells after 15 days, inhibitors at working concentrations for TGFβ inhibition every three days, Fig. 1d
Procedure: (§1) Cells were plated at 2000 cell per well in 96-well plates in the presence or absence of doxycycline. Relative amounts of live cells were quantified by luciferase-based Cell titer-Glo® assay. b TGFβR1 inhibitors were assessed for their ability to increase cell expansion in RPS19-insuffiency. As a control, vehicle alone (no doxycycline) is represented at the far left while all other samples were treated with doxycycline to induce RPS19-insufficiency. c Kit^+ erythroid progenitors were grown in the absence of doxycycline and in the presence of 10 µM of indicated compound. In addition, cells were treated with 5 ng/ml of TGFβ1 for 5 days before being subjected to Cell titer-Glo® assay. d Differentiating cord blood CD34^+ progenitors were transduced with shRNA against luciferase or RPS19 and treated with inhibitors at working concentrations for TGFβ inhibition every three days. […] Cells were counted and CD235^+ erythroid (i and iii) and CD11b^+ myeloid cell (ii and iv) percentages were determined by flow cytometry. The number of erythroid or myeloid cells is expressed as a percentage of the number of that lineage with no cytokine or drug treatment. Bars represent means ± SD with individual data points overlaid. n = 3 independent experiments performed in triplicate. Statistics: two-tailed Student’s t test, significant *p < 0.05. Also see Supplementary Fig. 1. Erythroid expansion is depicted in red while myeloid is in purple. Source data are provided as a Source Data file.
Cells were counted and assessed for cell surface expression of CD235. b Lin-Kit^+ hematopoietic progenitors were obtained from three mouse embryos expressing tetracycline-inducible shRNA against RPS19 at day E14.5 or three untreated mice, and thee mature RPL11^+/+ or three mature RPL11^+/lox mice treated with tamoxifen for eight weeks. […] Values were expressed as a percentage relative to untreated controls. c, d Intracellular phosphorylation of NLK at Thr298 was determined by capillary electrophoresis using the Peggy Sue™ Automated Western blotting platform. After lysis, 4 µg of protein from the CD235^+ population was probed against pThr298-NLK and normalized to GAPDH. […] After counting the total cell population, the ratio of CD235^+ erythroblasts was determined by flow cytometry and number of CD235^+ erythroblasts calculated. This was expressed as a percentage of the average number of erythroid cells present in untreated healthy controls. f NLK phosphorylation was assessed by capillary electrophoresis as above. Bars represent means ± SD with individual data points overlaid. […] Statistics: two-tailed Student’s t test, significant *p < 0.05. Also see Supplementary Fig. 8. Source data are provided as a Source Data file.
Primary human CD34^+ hematopoietic stem and progenitor cells were purified from cord or peripheral blood (New York Blood Center) or from human fetal liver tissue (Advanced Bioscience Resources and University of California, Los Angeles Center for AIDS Research) by using magnetic-activated cell sorting (Miltenyi Biotec) and were cryopreserved. Upon thawing, cells were cultured in x-Vivo15 media (Lonza) containing 10% fetal bovine serum, fms-related tyrosine kinase 3 (50 ng/ml), […] (50 ng/ml), interleukin-3 (IL-3; 20 ng/ml), interleukin-6 (IL-6; 20 ng/ml), and stem cell factor (50 ng/ml). When applied, TGFβ1 was added at 5 ng/ml. Kp53A1 cells were obtained from Javier Leon and cultured in DMEM supplemented with 10% fetal bovine serum at 37 or 32 °C.

[2] = system: RPS19-insufficient Lin-Kit+ progenitors from mouse embryonic (E14.5–E15.5) fetal livers; assay: c-Kit+ erythroid expansion rescue in murine RPS19-insufficient progenitors (Cell titer-Glo); assay type: cell-based; conditions: for rescue of c-Kit+ erythroid expansion: 10 µM, murine RPS19-insufficient model, Fig. 1b; for pEC50: Mus musculus, read-out: EC50 of improved erythroid growth
Procedure: as §1
(1 picture or pasted object on this page, not shown here)

p38 = conditions: reported, no reference given; read-out: reported IC50 against p38; cited from earlier work

Structure (SMILES)	increase of erythropoiesis in RPS19-insufficiency compared with control treated cells [1]	rescue of c-Kit+ erythroid expansion [2]	pEC50 ([2]; murine RPS19-insufficient cells, Supplementary Fig. 1a)	pIC50 (p38)	erythroid expansion (CD235) in RPS19-insufficient HSPCs ([1]; 12 days, recommended concentrations, rebuttal Experiment 12)	improvement of erythropoiesis (comparison of SD208 with p38 inhibitors) ([1]; CD235+, 12 days, recommended concentrations, Supplementary Fig. 2b)	activity at 5 µM ([1]; Homo sapiens, 360 h, read-out: erythroid expansion in RPS19-insufficiency, % of control)	erythroid expansion, % of vehicle treated control cells ([1]; RPS19-insufficient cells, 5 µM, with or without TGFβ, Fig. 1e.iii)	RPS19-insufficient CD235+ erythroblast expansion, % of ribosome-competent controls ([1]; SD208 alone every three days, 15 days, untreated […], Fig. 2d.i)	RPS19-insufficient CD235+ erythroblast expansion, % of ribosome-competent controls, combined with siRNA against NLK ([1]; SD208 plus siNLK, 15 days, untreated […], Fig. 2d.i)	effect on differentiation of non-erythroid hematopoietic lineages ([1]; control or ribosome-insufficient cells)	pEC50 [2]
NC(=O)c1ccc(-c2nc(-c3ccc4c(c3)OCO4)c(-c3ccccn3)[nH]2)cc1 [SB431542]	3.2 fold	significantly rescued	5.30	5.05								
Fc1ccc(Cl)cc1-c1nc(Nc2ccncc2)c2nccnc2n1 [SD208]	6.3 fold	significantly rescued		6.07	significantly increased	improved erythropoiesis	38.7%	428.6%	40.3%	43.6%	did not impact	6.15
